PMC11946580, “In Vitro Enzymatic and Computational Assessments of Pyrazole–Isatin and Pyrazole–Indole Conjugates as Anti-Diabetic, Anti-Arthritic, and Anti-Inflammatory Agents” (Pharmaceutics, 2025)

Legend:
[1] = target: α-amylase enzyme; design: method as in PMID 34600331; conditions: cited from earlier work
[2] = target: bovine serum albumin (BSA) (Bos taurus, UniProt P02769); conditions: mean ± SE, three replicates; also: test concentration or dose not given here
[3] = target: T1, COX-1 (Ovis aries, UniProt P05979); assay: COX-1 inhibition assay (Cayman kit); conditions: for COX-1 Inhibition (%): mean ± SE, three replicates; as to COX-1 Inhibition (%): test concentration or dose not given here
T1 sequence (P05979 25-600): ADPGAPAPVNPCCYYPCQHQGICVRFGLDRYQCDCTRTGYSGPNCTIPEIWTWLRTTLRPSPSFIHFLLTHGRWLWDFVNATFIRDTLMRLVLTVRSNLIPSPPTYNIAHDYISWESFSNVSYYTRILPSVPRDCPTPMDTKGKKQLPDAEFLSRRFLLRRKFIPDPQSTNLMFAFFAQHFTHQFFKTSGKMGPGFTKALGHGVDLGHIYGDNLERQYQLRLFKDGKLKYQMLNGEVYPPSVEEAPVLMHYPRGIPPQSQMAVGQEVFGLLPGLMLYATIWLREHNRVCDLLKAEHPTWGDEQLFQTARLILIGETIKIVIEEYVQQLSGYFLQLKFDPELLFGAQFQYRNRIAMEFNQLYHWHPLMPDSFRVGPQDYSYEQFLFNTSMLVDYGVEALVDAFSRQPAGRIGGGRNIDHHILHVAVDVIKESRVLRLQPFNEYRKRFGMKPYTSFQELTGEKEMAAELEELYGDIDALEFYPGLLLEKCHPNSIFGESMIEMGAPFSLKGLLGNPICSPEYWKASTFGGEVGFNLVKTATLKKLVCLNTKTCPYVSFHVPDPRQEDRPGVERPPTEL

[4] = target: T2, COX-2 (Homo sapiens, UniProt P35354); assay: COX-2 inhibition assay (Cayman kit); format: biochemical; conditions: mean ± SE, three replicates
T2 construct: purchased Cayman 560131
T2 sequence (P35354 18-604): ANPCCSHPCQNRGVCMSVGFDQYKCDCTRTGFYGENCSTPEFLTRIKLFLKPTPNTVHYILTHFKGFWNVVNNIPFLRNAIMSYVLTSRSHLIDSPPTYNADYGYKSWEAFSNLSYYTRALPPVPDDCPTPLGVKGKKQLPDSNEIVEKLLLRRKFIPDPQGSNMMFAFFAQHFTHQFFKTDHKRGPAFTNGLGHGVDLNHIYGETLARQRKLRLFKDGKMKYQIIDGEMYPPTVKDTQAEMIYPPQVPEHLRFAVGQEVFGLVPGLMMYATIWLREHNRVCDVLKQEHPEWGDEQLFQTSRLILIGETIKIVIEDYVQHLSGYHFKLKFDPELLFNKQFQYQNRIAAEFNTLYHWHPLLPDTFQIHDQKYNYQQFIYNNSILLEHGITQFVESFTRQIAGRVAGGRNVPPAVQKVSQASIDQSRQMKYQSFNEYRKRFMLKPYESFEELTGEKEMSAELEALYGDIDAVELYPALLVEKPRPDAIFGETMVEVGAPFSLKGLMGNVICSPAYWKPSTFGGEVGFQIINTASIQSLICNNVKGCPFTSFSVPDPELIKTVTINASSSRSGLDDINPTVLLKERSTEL

[5] = target: T3, 5-LOX (Homo sapiens, UniProt P09917); assay: 5-Lipoxygenase inhibition assay (kit); conditions: for 5-LOX Inhibition (%): mean ± SE, three replicates; as to 5-LOX Inhibition (%): test concentration or dose not given here
T3 sequence (P09917 1-674): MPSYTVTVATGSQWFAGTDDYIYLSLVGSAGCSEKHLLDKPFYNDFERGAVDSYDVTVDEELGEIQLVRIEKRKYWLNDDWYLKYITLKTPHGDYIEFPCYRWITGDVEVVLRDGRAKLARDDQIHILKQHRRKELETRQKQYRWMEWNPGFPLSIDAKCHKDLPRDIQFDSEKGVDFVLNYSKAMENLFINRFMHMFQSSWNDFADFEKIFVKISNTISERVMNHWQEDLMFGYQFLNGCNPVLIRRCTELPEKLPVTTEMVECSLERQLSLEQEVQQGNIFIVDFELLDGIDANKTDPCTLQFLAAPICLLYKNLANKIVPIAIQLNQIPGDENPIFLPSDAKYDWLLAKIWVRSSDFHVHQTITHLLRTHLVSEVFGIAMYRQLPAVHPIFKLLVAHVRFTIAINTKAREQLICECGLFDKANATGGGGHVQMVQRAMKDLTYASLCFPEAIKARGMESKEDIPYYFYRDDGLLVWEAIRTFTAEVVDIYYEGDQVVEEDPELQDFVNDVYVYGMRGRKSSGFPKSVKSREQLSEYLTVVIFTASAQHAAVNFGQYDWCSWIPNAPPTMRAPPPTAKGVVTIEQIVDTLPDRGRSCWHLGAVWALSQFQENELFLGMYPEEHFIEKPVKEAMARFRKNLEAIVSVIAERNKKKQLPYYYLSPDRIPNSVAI

[6] = target: α-glucosidase enzyme; design: method as in PMID 38225280; conditions: cited from earlier work
[7] = design: method as in doi:10.1007/s11164-024-05318-1; conditions: read-out: antioxidant activities IC50; cited from earlier work
[8] = target: cyclooxygenase-1 (COX-1) enzyme; design: method as in PMID 37985602; conditions: cited from earlier work
[9] = target: cyclooxygenase-2 (COX-2) enzyme; design: method as in PMID 37985602; conditions: cited from earlier work
[10] = system: pancreatic cancer (PaCa-2) cells; design: method as in PMID 39193301; conditions: cited from earlier work

Chain of bovine serum albumin (BSA) (P02769 25-607): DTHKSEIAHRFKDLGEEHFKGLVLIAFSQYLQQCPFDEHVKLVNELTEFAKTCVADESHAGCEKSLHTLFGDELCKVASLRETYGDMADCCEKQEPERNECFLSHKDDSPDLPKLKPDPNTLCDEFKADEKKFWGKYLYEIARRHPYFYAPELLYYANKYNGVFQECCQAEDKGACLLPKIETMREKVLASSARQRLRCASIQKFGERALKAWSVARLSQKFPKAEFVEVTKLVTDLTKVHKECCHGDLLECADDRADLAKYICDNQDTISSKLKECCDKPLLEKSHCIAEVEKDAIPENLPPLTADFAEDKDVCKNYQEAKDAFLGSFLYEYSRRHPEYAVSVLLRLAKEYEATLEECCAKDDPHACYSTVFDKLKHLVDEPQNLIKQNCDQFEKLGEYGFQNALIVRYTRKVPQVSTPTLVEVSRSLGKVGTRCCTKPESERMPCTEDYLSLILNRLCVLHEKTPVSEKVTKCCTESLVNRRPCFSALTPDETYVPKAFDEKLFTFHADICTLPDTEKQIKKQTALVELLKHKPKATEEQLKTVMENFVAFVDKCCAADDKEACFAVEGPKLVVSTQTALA

Row | Compound | α-amylase IC50 [1] [µg/mL] | Protein Denaturation Inhibition (%) [2] [%] | IC50 [3] [µM] | COX-1 Inhibition (%) [3] [%] | COX-2 Inhibition (%) [4] [%] | IC50 [4] [µM] | IC50 [5] [µM] | 5-LOX Inhibition (%) [5] [%] | IC50 [6] [µM] | IC50 [7] [µM] | IC50 [8] [µM] | IC50 [9] [µM] | PaCa-2 cells IC50 [10] [µg/mL] | cell cycle effect in treated PaCa-2 cells [10]
1 | CCC(=O)CN1C(=O)/C(=N/NC(=O)c2ccc(Br)cc2)c2ccccc21 [compound 4] | 19.6 | – | – | – | – | – | – | – | – | – | – | – | – | –
2 | COc1ccc(Nc2n[nH]c(N=C3C(=O)N(C)c4ccccc43)c2C(=O)Nc2ccc(C)cc2)cc1 [12d] | – | 16.62 ± 0.03 | 38 | 20.80 ± 0.04 | 23.05 ± 0.04 | 35 | 39.4 | 12.90 ± 0.04 | – | – | – | – | – | –
3 | CCN1C(=O)C(=Nc2[nH]nc(Nc3ccc(OC)cc3)c2C(=O)Nc2ccccc2)c2ccccc21 [12g] | – | 16.85 ± 0.03 | 37.4 | 21.15 ± 0.04 | 23.40 ± 0.04 | 34.4 | 38.9 | 13.25 ± 0.04 | – | – | – | – | – | –
4 | CCN1C(=O)C(=Nc2[nH]nc(Nc3ccccc3)c2C(=O)Nc2ccccc2)c2ccccc21 [12e] | – | 14.50 ± 0.03 | 47.8 | 17.62 ± 0.04 | 19.87 ± 0.04 | 43.3 | 48 | 9.72 ± 0.04 | – | – | – | – | – | –
5 | CCN1C(=O)C(=Nc2[nH]nc(Nc3ccc(OC)cc3)c2C(=O)Nc2ccc(C)cc2)c2ccccc21 [12h] | – | 16.45 ± 0.03 | 37.3 | 20.56 ± 0.04 | 22.81 ± 0.04 | 34.3 | 38.7 | 12.66 ± 0.04 | – | – | – | – | – | –
6 | CCN1C(=O)/C(=N\c2[nH]nc(Nc3ccccc3)c2C(=O)Nc2ccc(C)cc2)c2ccccc21 [12f] | – | 15.36 ± 0.03 | 43.2 | 18.91 ± 0.04 | 21.16 ± 0.04 | 39.4 | 44 | 11.01 ± 0.04 | – | – | – | – | – | –
7 | CC(c1cc2ccccc2s1)N(O)C(N)=O (centres unmarked) [Zileuton, reference compound] | – | – | – | – | – | – | – | 72.61 ± 0.07 | – | – | – | – | – | –
8 | CN1C(=O)C(=Nc2[nH]nc(Nc3ccccc3)c2C(=O)Nc2ccccc2)c2ccccc21 [12a] | – | 14.40 ± 0.03 | 49.8 | 17.47 ± 0.04 | 19.72 ± 0.04 | 45 | 49.9 | 9.57 ± 0.04 | – | – | – | – | – | –
9 | Cc1cc(-c2nnc(S)n2N)n[nH]1 [compound 1] | – | – | – | – | – | – | – | – | 95.85 ± 0.92 | – | – | – | – | –
10 | COc1ccc(Nc2n[nH]c(N=Cc3c[nH]c4ccccc34)c2C(=O)Nc2ccccc2)cc1 [14c] | – | 26.13 ± 0.17 | 24 | 35.07 ± 0.26 | 37.32 ± 0.26 | 23 | 27.8 | 27.17 ± 0.26 | – | – | – | – | – | –
11 | COc1cc(C=NNC(=S)NN=C2C(=O)Nc3ccc(I)cc32)ccc1O [compound 5] | – | – | – | – | – | – | – | – | – | 9.76 ± 0.03 | – | – | – | –
12 | Cc1ccc(NC(=O)c2c(Nc3ccccc3)n[nH]c2N=C2C(=O)N(C)c3ccccc32)cc1 [12b] | – | 15.25 ± 0.03 | 44.9 | 18.75 ± 0.04 | 21.00 ± 0.04 | 40.9 | 45.7 | 10.85 ± 0.04 | – | – | – | – | – | –
13 | COc1ccc(Nc2n[nH]c(N=C3C(=O)N(C)c4ccccc43)c2C(=O)Nc2ccccc2)cc1 [12c] | – | 16.73 ± 0.03 | 38.8 | 20.98 ± 0.04 | 23.23 ± 0.04 | 35.8 | 40.4 | 13.08 ± 0.04 | – | – | – | – | – | –
14 | COc1ccc(Nc2n[nH]c(N=Cc3c[nH]c4ccccc34)c2C(=O)Nc2ccc(C)cc2)cc1 [14d] | – | 26.50 ± 0.17 | 22.9 | 35.63 ± 0.26 | 37.88 ± 0.26 | 22 | 26.7 | 27.73 ± 0.26 | – | – | – | – | – | –
15 | Cc1ccc(NC(=O)c2c(Nc3ccccc3)n[nH]c2N=Cc2c[nH]c3ccccc23)cc1 [14b] | – | 49.30 ± 0.17 | 12.5 | 69.83 ± 0.26 | 72.08 ± 0.26 | 12.4 | 17.3 | 61.93 ± 0.26 | – | – | – | – | – | –
16 | O=C(Nc1cc(-c2ccccc2)nn1-c1ccccc1)c1ccc(/C=C/C(=O)c2ccc(Cl)s2)cc1 [compound 2] | – | – | – | – | – | – | – | – | – | – | 10.2 | 1.76 | – | –
17 | O=C(Nc1ccccc1)c1c(Nc2ccccc2)n[nH]c1N=Cc1c[nH]c2ccccc12 [14a] | – | 37.94 ± 0.17 | 17.1 | 52.79 ± 0.26 | 55.04 ± 0.26 | 16.7 | 21.9 | 44.89 ± 0.26 | – | – | – | – | – | –
18 | CCc1nn(-c2ccc([N+](=O)[O-])cc2)c(C)c1C(=O)/C=C/c1ccccc1 [compound 3] | – | – | – | – | – | – | – | – | – | – | – | – | 13.0 | induces cell cycle arrest at the S and G2/M phases
